Results taken from article PMC10816934, “Targeting the Melanocortin 1 Receptor in Melanoma: Biological Activity of α-MSH–Peptide Conjugates” (International Journal of Molecular Sciences, 2024).
Square brackets hold non-standard residues; d marks the D form. Peptide text beside a SMILES is read from it. * marks the point of attachment. Daunorubicin(13-NOCH2CO) = COc1cccc2c1C(=O)c1c(O)c3c(c(O)c1C2=O)C[C@@](O)(C(C)=NOCC(=O)*)C[C@@H]3O[C@H]1C[C@H](N)[C@H](O)[C@H](C)O1; Nle = CCCC[C@H](N)C(=O)O

Assays:
[1] = system: subcutaneous B16 murine melanoma in C57BL/6 male mice; assay: In vivo antitumor effect, subcutaneous B16 melanoma allograft; settings: conjugates 10 mg Dau content/kg
Method: In the first experiment, B16 murine melanoma cells were subcutaneously (s.c.) injected into side of the latero-abdominal region of 35 C57BL/6 male mice (20–28 g), which murine strain is syngeneic for the B16 melanoma tumor cell line [59, 60], 6.5 ×·10^5 cells in a volume of 200 µL M199 medium was inoculated per animal. Mice were randomized in a stratified procedure considering two main factors. The primary factor was to obtain groups with the most equal tumor sizes, the secondary factor was to have groups in which the weight of mice are the most equal. The treatment started 9 days after cell inoculation when average tumor volume was 30 mm^3. Compounds were dissolved in saline solution (Teva, Debrecen, Hungary), and administered via i.p. injection in a volume of 0.1 mL per 10 g of bodyweight. […] Animal weight and tumor volumes were measured initially when the treatment started and at periodic intervals following treatment. A digital caliper was used to measure the longest (a) and the shortest diameter (b) of a given tumor. The tumor volume was calculated using the formula V = ab^2 × π/6, whereby a and b represent the measured parameters (length and width). Termination of the experiment was 20 days after cell inoculation, i.e., 12 days after treatment started, since the average volume of the tumors in the control group reached over 1800 mm^3. The mice from all groups were sacrificed by cervical dislocation after which their tumors were harvested and weighed for antitumor effect assessment. Antitumor effect of treatments was evaluated measuring the tumor volume and calculating the percentage of how much the tumor volume grew in comparison to the starting tumor volume which was set arbitrarily for all tumors as 100% at the start of treatment.

[2] = system: WM983B human melanoma cell line; assay: In vitro antiproliferative activity, MTT assay; type: cell-based; settings: ratio of IC50 values of free Dau and conjugate
Excerpt: (§1) The following cell cultures were used for the biological evaluation of the synthetic melanoma-specific peptide–drug (Dau–α-MSH) conjugates: A2058 (human skin melanoma, CVCL_1059), M24 (human metastatic skin melanoma, CVCL_D032), OCM-1 (human ocular choroidal melanoma-1, CVCL_6934), OCM-3 (human ocular choroidal melanoma-3, CVCL_6937), WM983A (human metastatic skin melanoma, CVCL_6808), WM983B (human metastatic skin melanoma CVCL_6809), SK-MEL-202 (human skin melanoma, ATCC HTB-68) and B16 (mouse melanoma, ATCC: CRL-6475). Cells were maintained in RPMI-1640 (Lonza, Basel, Switzerland), supplied with 10% FBS (fetal bovine serum; BioSera, Nuaille, France), L-glutamine, and 1% penicillin–streptomycin (from 10 000 units penicillin and 10 mg streptomycin/mL, Gibco, Dublin, Ireland) at 37 °C in a 5% CO2 atmosphere. No mycoplasma contamination was detected in the cell cultures.
(§2) The in vitro cytostatic effect of Dau–α-MSH conjugates was determined by two different assays. The full-length Dau–α-MSH conjugates were investigated by MTT assay using human and murine melanoma cell cultures. For determination of the cytostatic effect of these conjugates, the cells were treated with the compounds at 0.8–100 μM concentration range dissolved in the corresponding serum-free media for 24 h. After incubation, the treating solutions were removed, the cells were washed two times with serum-free medium and cultured for 48 h in the appropriate serum-containing cell culture medium. On the fourth day, the MTT assay was carried out to determine the IC50 values of the compounds. IC50 is the concentration that inhibits cell proliferation by 50%. Nonlinear regression analysis was performed with Prism 6 software (GraphPad, La Jolla, CA, USA) to generate sigmoidal dose–response curves, from which the 50% inhibitory concentration (IC50) values of the compounds were calculated and presented as micromolar (µM) units. The experiments were done in triplicate, and each experiment was repeated twice.

[3] = system: A2058 human melanoma cell line; assay: In vitro antiproliferative activity, MTT assay; type: cell-based; settings: ratio of IC50 values of free Dau and conjugate
Excerpt: as §1, §2

[4] = system: M24 human melanoma cell line; assay: In vitro antiproliferative activity, MTT assay; type: cell-based; settings: ratio of IC50 values of free Dau and conjugate
Excerpt: as §1, §2

WM983A cells = assay: In vitro cytostatic effect, PrestoBlue assay; type: cell-based, human
Excerpt: as §1
(§3) The in vitro cytostatic effect of the Dau–α-MSH conjugate with optimized sequence (Conj4) was investigated and compared with Conj2 by PrestoBlue assay using human melanoma cell cultures with different origins. For determination of the cytostatic effect of the conjugates, the cells were treated with the compounds at 0.003–200 μM concentration range dissolved in the corresponding serum-free medium for 72 h. After the treatment, the PrestoBlue assay (purchased from Invitrogen (Waltham, MA, USA) was carried out to determine the IC50 values of the compounds. Based on the IC50 values, we also determined the targeting index (TI) of the conjugates using the following equation [58]: TI=IC50neg/IC50posconjugate/IC50neg/IC50posfree drug

SK-MEL-202 cells = assay: In vitro cytostatic effect, PrestoBlue assay; type: cell-based, human
Excerpt: as §1, §3

WM983B cells = assay: In vitro cytostatic effect, PrestoBlue assay; type: cell-based, human
Excerpt: as §1, §3

OCM-1 cells = assay: In vitro cytostatic effect, PrestoBlue assay; type: cell-based, human
Excerpt: as §1, §3

OCM-3 cells = assay: In vitro cytostatic effect, PrestoBlue assay; type: cell-based, human
Excerpt: as §1, §3

A2058 cells = assay: In vitro cytostatic effect, PrestoBlue assay; type: cell-based, human
Excerpt: as §1, §3

healthy male BALB/c mice = assay: In vivo acute toxicity study on healthy mice; design: species or system mouse
Method: To determine toxicity of conjugates on healthy animals, in vivo acute toxicity study of Dau, Conj2 and Conj4 was performed. In the first experiment, adult BALB/c male mice (29–31 g) were exposed by one injection of the conjugate at the start of experiment, by intraperitoneal (i.p.) administration. A dose of 25 mg Dau content/kg was used, in a volume of 0.1 mL per mice (3 mice per condition). In the second in vivo experiment, NOD-SCID mice were exposed by four injections of the conjugates at the start of experiment, by intraperitoneal (i.p.) administration. Doses of 5, 10 and 15 mg Dau content/kg were used for the toxicity assay, at a volume of 0.1 mL per mice (3 mice per condition). The animals were kept under the conditions as described above.

[5] = system: OCM-1 human uveal melanoma tumor in male NOD-SCID mice; assay: In vivo tumor growth inhibition, OCM-1 xenograft; design: species or system mouse; settings: for Normalized liver weight, value line 1 / Normalized liver weight, value line 2 / Normalized liver weight, value line 3 / Normalized liver weight, value line 4 / Normalized liver weight, value line 5 / Normalized liver weight, value line 6 / Normalized liver weight, value line 7 / Normalized liver weight, line printed as "ave": Table S2; for Normalized liver weight, value line 1 / Normalized liver weight, value line 2 / Normalized liver weight, value line 3 / Normalized liver weight, value line 4 / Normalized liver weight, value line 5 / Normalized liver weight, value line 6 / Normalized liver weight, value line 7: single animal; for Normalized liver weight, line printed as "ave": value line 8
Method: In the next experiment, the murine xenograft melanoma model establishment studies were performed using 8–12-week-old male NOD-SCID mice. For selection of the most suitable tumor model, three cell lines were then inoculated subcutaneously, OCM-1, SK-MEL-202, and WM983A. Cells were injected in a 0.1 mL RPMI-1640 basic medium in a concentration of 1.5·× 10^6 cells/mL, and the tumor growth and weight of mice were monitored 2–3 times per week. Subsequently, the antitumor effects of the Dau–α-MSH conjugates were determined in a mouse xenograft melanoma model selected as described above. Once the tumor volume reached 60 mm^3, mice were randomized and assigned to different groups for each treatment: 0.9% saline as a control, free daunomycin, Conj2 and Conj4. Treatments were injected intraperitoneally every fifth day, three times in total (daunomycin dosage of 5 mg/kg in case of Conj2, 10 mg/kg for Conj4, respectively, which was determined based on the toxicity tests, and 1 mg/kg were used for free drug–MTD). The weight and tumor size of mice were monitored during the whole experiment. On Day 33, mice were euthanized, and the primary tumor, heart, lung, liver, and spleen were harvested and stored in 4% formalin (Molar Chemicals, Halásztelek, Hungary). Liver weight was measured for the calculation of the toxicity of conjugates and daunomycin.

[6] = system: B16 murine melanoma cell line; assay: In vitro antiproliferative activity, MTT assay; type: cell-based, mouse; settings: ratio of IC50 values of free Dau and conjugate
Excerpt: as §1, §2

[7] = change compared to control group, minus = inhibition, free Dau 1 mg/kg

With `CCCC[C@H](NC(=O)[C@H](CO)NC(=O)[C@H](Cc1ccc(O)cc1)NC(=O)[C@H](CO)NC(C)=O)C(=O)N[C@@H](CCC(=O)O)C(=O)N[C@@H](Cc1c[nH]cn1)C(=O)N[C@@H](Cc1ccccc1)C(=O)N[C@@H](CCCNC(=N)N)C(=O)N[C@@H](Cc1c[nH]c2ccccc12)C(=O)NCC(=O)N[C@@H](CCCCNC(=O)CON=C(C)[C@]1(O)Cc2c(O)c3c(c(O)c2[C@@H](O[C@H]2C[C@H](N)[C@H](O)[C@H](C)O2)C1)C(=O)c1c(OC)cccc1C3=O)C(=O)N1CCC[C@H]1C(=O)N[C@H](C(N)=O)C(C)C` [Conj2, Ac-SYSNleEHFRWGK(Dau=Aoa)PV-NH2] the “Tumor growth inhibition based on tumor weight, in comparison to the control group” value ([1]; after termination (day 20), free Dau 1 mg/kg i.p.) was 38.6%, the “Tumor weigh in % (Table S1)” value ([1]; change compared to control group, minus = decrease, free Dau 1 mg/kg) was -38.6% and the “Tumor volume in % (Table S1)” value [1, 7] was -75.4%. For the same compound, the “Tumor volume in mm3 (Table S1)” value [1, 7] was -37.8%, the “Relative Potency” value [2] was 0.0063 and the “Relative Potency” value [3] was 0.0125. The “Relative Potency” value [4] was 0.0103, the “Targeting Index (TI)” value (WM983A cells; WM983A versus A2058, TI = (IC50neg/IC50pos conjugate)/(IC50neg/IC50pos free drug)) was 1.90 and the “Targeting Index (TI)” value (SK-MEL-202 cells; SK-MEL-202 versus A2058, TI = (IC50neg/IC50pos conjugate)/(IC50neg/IC50pos free drug)) was 2.74. For the same compound, the “Targeting Index (TI)” value (WM983B cells; WM983B versus A2058, TI = (IC50neg/IC50pos conjugate)/(IC50neg/IC50pos free drug)) was 2.61, the “Targeting Index (TI)” value (OCM-1 cells; OCM-1 versus A2058, TI = (IC50neg/IC50pos conjugate)/(IC50neg/IC50pos free drug)) was 2.30 and the “Targeting Index (TI)” value (OCM-3 cells; OCM-3 versus A2058, TI = (IC50neg/IC50pos conjugate)/(IC50neg/IC50pos free drug)) was 1.85. The “Targeting Index (TI)” value (A2058 cells; A2058 (reference cell line), TI = (IC50neg/IC50pos conjugate)/(IC50neg/IC50pos free drug)) was 1.00, the “Changes in bodyweight, liver mass, general appearance and behavior” value (healthy male BALB/c mice; after 14 days, one i.p. injection 25 mg Dau content/kg, BALB/c male mice) was “no significant changes” and the Acute toxicity (healthy male BALB/c mice; one i.p. injection, up to 25 mg Dau content/kg, healthy BALB/c male mice, 3 mice, 14 days) was “does not show acute toxicity”. For the same compound, the “Growth of the tumor reduced to % of the control size” value ([5]; Day 33, 5 mg/kg Dau content i.p., three treatments (days 15, 19, 23), p: 0.0056) was 55%, the “Normalized liver weight, value line 1” value [5] was 3.77% and the “Normalized liver weight, value line 2” value [5] was 5.10%. For the same compound, the “Normalized liver weight, value line 3” value [5] was 4.35%, the “Normalized liver weight, value line 4” value [5] was 4.14% and the “Normalized liver weight, value line 5” value [5] was 4.73%. For the same compound, the “Normalized liver weight, value line 6” value [5] was 4.15%, the “Normalized liver weight, value line 7” value [5] was 4.90% and the “Normalized liver weight, line printed as "ave"” value [5] was 4.55%. The “Relative Potency” value [6] was 0.0093.
`CCCC[C@H](NC(C)=O)C(=O)N[C@@H](CCC(=O)O)C(=O)N[C@@H](Cc1c[nH]cn1)C(=O)N[C@H](Cc1ccccc1)C(=O)N[C@@H](CCCNC(=N)N)C(=O)N[C@@H](Cc1c[nH]c2ccccc12)C(=O)NCC(=O)N[C@@H](CCCCNC(=O)CON=C(C)[C@]1(O)Cc2c(O)c3c(c(O)c2[C@@H](O[C@H]2C[C@H](N)[C@H](O)[C@H](C)O2)C1)C(=O)c1c(OC)cccc1C3=O)C(N)=O` [Conj4, Ac-NleEHfRWGK(Dau=Aoa)-NH2] (Ac-[Nle]EH[dF]RWGK(Daunorubicin(13-NOCH2CO))-NH2) gave an IC50 (WM983A cells; WM983A, PrestoBlue, 0.003–200 μM in serum-free medium 72 h, mean ± SEM of three independent experiments) of 13.5 ± 0.06 µM, an IC50 (SK-MEL-202 cells; SK-MEL-202, PrestoBlue, 0.003–200 μM in serum-free medium 72 h, mean ± SEM of three independent experiments) of 2.06 ± 0.1 µM and an IC50 (WM983B cells; WM983B, PrestoBlue, 0.003–200 μM in serum-free medium 72 h, mean ± SEM of three independent experiments) of 10.18 ± 0.06 µM. For the same compound, the IC50 (OCM-1 cells; OCM-1, PrestoBlue, 0.003–200 μM in serum-free medium 72 h, mean ± SEM of three independent experiments) was 29.68 ± 0.06 µM, the IC50 (OCM-3 cells; OCM-3, PrestoBlue, 0.003–200 μM in serum-free medium 72 h, mean ± SEM of three independent experiments) was 25.47 ± 0.08 µM and the IC50 (A2058 cells; A2058, PrestoBlue, 0.003–200 μM in serum-free medium 72 h, mean ± SEM of three independent experiments) was 7.15 ± 0.07 µM. The “Normalized liver weight, value line 1” value [5] was 5.23%, the “Normalized liver weight, value line 2” value [5] was 4.34% and the “Normalized liver weight, value line 3” value [5] was 4.47%. The “Normalized liver weight, value line 4” value [5] was 4.50%, the “Normalized liver weight, value line 5” value [5] was 5.35% and the “Normalized liver weight, value line 6” value [5] was 4.70%. For the same compound, the “Normalized liver weight, value line 7” value [5] was 5.11% and the “Normalized liver weight, line printed as "ave"” value [5] was 4.62%.
